{
  "source": "patent US20250387322A1",
  "about": "“DRUG DELIVERY AGENTS FOR PREVENTION OR TREATMENT OF PULMONARY DISEASE” (UNIVERSITY INDUSTRY FOUNDATION, YONSEI UNIVERSITY WONJU …, priority 2018, published 2025)",
  "key": {"[1]": {"test_system": "lung cancer metastasis model", "assay": "Optical imaging of carrier/drug distribution in lung cancer metastasis model", "assay_type": "in vivo", "description": "FIG. 9 is an optical microscope image of major organs 3 hours after injecting a lung disease drug delivery carrier according to one Example of the present disclosure and Comparative Example into a lung cancer metastasis model. A GFP filter image may identify the presence or absence of cancer and a location thereof by labeling cancer cells with GFP (green fluorescent protein).\nFIG. 10 is an optical microscope image of a lung cancer metastasis model injected with a lung disease drug delivery carrier according to one Example of the present disclosure.\nFIG. 18A is an image of photographing the locations of cancer tumor and the locations of an injected DOX-DPP (doxorubicin-loaded disc-shaped drug delivery carrier) in an animal model, and FIG. 18B illustrates comparison of the locations of cancer tumor in major organs and amounts of doxorubicin alone (free DOX) or DOX-DPP in major organs. In this regard, the scale bar in FIG. 18A means 5 mm, and the scale bar in FIG. 18B means 20 mm. In addition, the cancer is a cancer cell expressing a GFP green fluorescent protein."}, "[2]": {"test_system": "C57BL/6 mice with lung cancer"}, "[3]": {"settings": "in vivo; cited from earlier work"}, "[4]": {"settings": "in vivo; cited from earlier work", "remark": "listed apart in the source"}, "[5]": {"test_system": "pulmonary fibrosis animal model", "assay": "Bleomycin (BLM) pulmonary fibrosis model: histopathology, immunohistochemistry, micro-CT", "assay_type": "in vivo", "settings": "FIG. 15A", "description": "FIG. 15A illustrates an effect of nintedanib-loaded PLGA disc particles according to one embodiment of the present disclosure, and FIGS. 15B to 15E illustrate experimental results according to each comparison group. […] FIGS. 15A to 15E illustrate results obtained by evaluating tissue morphology and degrees of inflammation and fibrosis through histopathological and immunohistochemical changes. Also, a scale bar in FIG. 15A is 100 μm. […] At this time, Nib is orally administered in the BLM and Nib administered group."}},
  "data": [
    {"compound": "COc1cccc2c1C(=O)c1c(O)c3c(c(O)c1C2=O)C[C@@](O)(C(=O)CO)C[C@@H]3O[C@H]1C[C@H](N)[C@H](O)[C@H](C)O1", "note": "[Comparative Example 2, doxorubicin]", "values": [
      {"measurement": "accumulation in major organs", "setting": "[1]; 3 hours after injecting, lung cancer metastasis model, FIG. 9", "value": "accumulated in the liver and kidneys in addition to the lungs"},
      {"measurement": "distribution of drug in major organs", "setting": "[1]; animal model with GFP-expressing cancer, FIGS. 18A, 18B", "value": "the drug is distributed even in major organs"},
      {"measurement": "metastatic tumor nodules in lung", "setting": "[2]; FIG. 19B", "value": "more metastatic tumor nodules appeared"},
      {"measurement": "cardiac toxicity", "setting": "[2]; long-period administration", "value": "cardiac toxicity appears"},
      {"measurement": "inflammation in heart and kidney", "setting": "[2]; organ tissue images, FIG. 20", "value": "strong inflammatory responses occur in the heart and kidney"}
    ]},
    {"compound": "Cc1ccc(=O)n(-c2ccccc2)c1", "note": "[pirfenidone]", "values": [
      {"measurement": "bioavailability", "setting": "[3]", "value": 4.7, "unit": "%"}
    ]},
    {"compound": "CCNC(=O)[C@@H]1CCCN1C(=O)[C@H](CCCNC(=N)N)NC(=O)[C@H](CC(C)C)NC(=O)[C@@H](CC(C)C)NC(=O)[C@H](Cc1ccc(O)cc1)NC(=O)[C@H](CO)NC(=O)[C@H](Cc1c[nH]c2ccccc12)NC(=O)[C@H](Cc1c[nH]cn1)NC(=O)[C@@H]1CCC(=O)N1", "note": "[Leuprolide]", "values": [
      {"measurement": "bioavailability compared to the subcutaneous route", "setting": "[4]", "value": 50, "unit": "%"}
    ]},
    {"compound": "COC(=O)c1ccc2c(c1)NC(=O)/C2=C(\\Nc1ccc(N(C)C(=O)CN2CCN(C)CC2)cc1)c1ccccc1", "note": "[Nib, nintedanib]", "values": [
      {"measurement": "inflammatory response and fibrous mass (histopathology)", "setting": "[5]", "value": "an inflammatory response is shown and the formation of a dense fibrous mass is shown"}
    ]}
  ]
}
